Measurements from patent US7332492B2, “Amino substituted dibenzothiophene derivatives for the treatment of disorders mediated by NP Y5 receptor” (AstraZeneca AB, priority 2000, dated 2008).

Target: T1, human neuropeptide Y5 receptor (Homo sapiens, UniProt Q15761)
T1 construct: starting at base 56 through to base 1393, to express the protein 10 amino acid residues shorter at the amino terminal end; made in house; host or cells: High 5 insect cells (baculovirus, pFASTBAC1 / Bac-to-Bac); membrane preparation
T1 sequence (Q15761 1-445): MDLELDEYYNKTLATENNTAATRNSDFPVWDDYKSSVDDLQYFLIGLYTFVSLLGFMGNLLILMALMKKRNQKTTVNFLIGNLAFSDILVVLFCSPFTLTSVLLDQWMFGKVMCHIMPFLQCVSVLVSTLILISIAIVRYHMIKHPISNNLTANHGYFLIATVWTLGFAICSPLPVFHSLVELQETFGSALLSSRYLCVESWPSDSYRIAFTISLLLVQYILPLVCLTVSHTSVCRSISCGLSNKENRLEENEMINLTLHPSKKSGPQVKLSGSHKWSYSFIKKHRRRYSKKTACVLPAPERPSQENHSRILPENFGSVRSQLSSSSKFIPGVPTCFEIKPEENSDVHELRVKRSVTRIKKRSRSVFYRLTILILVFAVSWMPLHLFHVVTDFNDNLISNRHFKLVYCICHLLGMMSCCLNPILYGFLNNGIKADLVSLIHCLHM
Assay: neuropeptide Y5 receptor binding assay (125I PYY displacement)
Conditions: 125I PYY binding, membranes of High 5 insect cells expressing human NPY5 receptor
Method: The activity of compounds of the invention was measured in a neuropeptide Y5 receptor binding assay as follows. Compounds were also tested in binding assays for the neuropeptide Y1 and neuropeptide Y2 receptors. Activity against these 2 receptors is contraindicated for a neuropeptide Y5 antagonist.
a) Expression of Human Neuropeptide Y5 Receptor in High 5™ Insect Cells.
High 5™ insect cells were obtained from Invitrogen (catalogue No B855-02) and stored in liquid nitrogen. Cells were revived from liquid nitrogen storage and grown at 28° C. in 100 ml ExCell 405 (JRH Biosciences) serum free medium in a 250 ml conical flask (Corning) agitated at 140 rpm in an Innova 4330 orbital shaker (New Brunswick Scientific). Cultures were routinely sub-cultured every 3-4 days.
High 5™ insect cells were transfected with the human NPY5 receptor as follows. PCR primers were designed against the huNPY5 receptor sequence, Genbank Accession Number U56079 [Gerald et. al. (1996) Nature 382, 168-171], but starting at base 56 through to base 1393, to express the protein 10 amino acid residues shorter at the amino terminal end [see Borowsky et. al. (1998) Regulatory Peptides 75-76, 45-53]. These primers were used to amplify the huNPY5 receptor from human placenta genomic DNA by PCR. […]

IC50: 94 nM
SMILES: CC(CN1CCOCC1)C(=O)Nc1ccc2sc3ccccc3c2c1 (stereo not shown) [Example 16]
